Two compounds from patent publication US20120014979A1, “USE OF BCL6 INHIBITORS FOR TREATING AUTOIMMUNE DISEASES” (priority 2010, published 2012) can be followed below.

For the experiment, the system named is individual with symptoms indicative of lupus. Description: Treatment of Lupus Erythematosus in an individual (Example 2). The class given is in vivo, human. The method, then: The individual is a person with symptoms including chronic fever, malaise, joint pains, myalgias, fatigue, indicative of lupus. The individual has previously been treated, largely unsuccessfully, with cyclophosphamides, corticosteroids and immunosuppressants.
The individual is treated for 1 to 60 days sequentially with BPI-1 administered at a dose of 4 mg/kg daily.

Turning to `O=C(O)CC(C(=O)O)N1C(=O)/C(=C2/C(=O)Nc3ccc(Br)cc32)SC1=S` (centres unmarked) [79-6], the “results in equivalent or comparable trials with individuals exhibiting similar symptomatology” value (BCL6 inhibitors other than BPI, compared with BPI-1 treatment of lupus) was “Equivalent results are obtainable”. With “NH2-G(RRRQRRKKR)GG(RGIEHAAR)GG(DIM)G(EW)G(NEIF)G(AIA)G(FL)G-OH [BPI-1]”, where the note is “person, 4 mg/kg daily, 1 to 60 days sequentially”, the “amelioration of lupus (severity and frequency of flares and their symptoms)” value is “long-lasting amelioration of lupus with a reduction in the severity and frequency of flares and their symptoms”.
